Tests used:
GHSR1a [1] = molecular target: T1, GHSR1a (Homo sapiens, UniProt Q92847); experiment: Calcium FLIPR assay, GHSR-1a agonism; assay type: cell-based; set-up: Emax: unit not given here; details: HEK293/GHSR1a cells
T1 construct: expressed in transfected cells; host or cells: HEK293
Procedure, shortened: (§1)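 Relative fluorescence read-out (FLIPR) of intracellular calcium in HEK293/GHSR1a cells. For antagonist mode, compound and 10 nM ghrelin were co-added at t=20 sec, and inhibition of the ghrelin response over 2 minutes gave IC50. Agonist mode: compound alone at t=20 sec, response tracked 2 minutes; EC50 from dose-response.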

GHSR1a [2] = molecular target: T1, GHSR1a; experiment: Calcium FLIPR assay, GHSR-1a antagonism (reduction of ghrelin response); assay type: cell-based; details: HEK293/GHSR1a cells, ghrelin 10 nM
Procedure, shortened: as §1

T1 sequence (Q92847 whole entry): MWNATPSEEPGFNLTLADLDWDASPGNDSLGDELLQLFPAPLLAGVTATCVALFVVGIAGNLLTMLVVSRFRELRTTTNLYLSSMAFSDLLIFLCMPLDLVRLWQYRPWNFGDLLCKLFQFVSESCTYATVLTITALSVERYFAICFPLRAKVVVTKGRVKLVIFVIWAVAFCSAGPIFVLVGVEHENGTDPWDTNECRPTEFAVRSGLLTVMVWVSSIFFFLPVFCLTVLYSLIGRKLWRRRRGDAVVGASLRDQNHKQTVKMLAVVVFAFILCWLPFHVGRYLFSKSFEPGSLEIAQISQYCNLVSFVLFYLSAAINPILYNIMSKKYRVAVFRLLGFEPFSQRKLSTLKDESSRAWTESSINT

CC(NC(=O)N(C)C1CCN(C)CC1)c1ccc(-c2cncc(-c3ccoc3)c2)c(Cl)c1Cl (centres unmarked) [Compound H0746, 3-(1-(2,3-dichloro-4-(5-(furan-3-yl)pyridin-3-yl)phenyl)ethyl)-1-methyl-1-(1-methylpiperidin-4-yl)urea]
EC50 (GHSR1a [1]): > 30000 nM | IC50 (GHSR1a [2]): 216 nM

CCC(NC(=O)N(CC)C1CCN(C)CC1)c1ccc(-c2cnccn2)c(Cl)c1Cl (centres unmarked) [Compound H0896, 3-(1-(2,3-dichloro-4-(pyrazin-2-yl)phenyl)propyl)-1-ethyl-1-(1-methylpiperidin-4-yl)urea]
EC50 (GHSR1a [1]): > 30000 nM | IC50 (GHSR1a [2]): 7 nM

CC(NC(=O)N(C)C1CCN(C)CC1)c1cnc(Cl)c(Cl)c1Cl (centres unmarked) [Compound H0876, 1-methyl-1-(1-methylpiperidin-4-yl)-3-(1-(4,5,6-trichloropyridin-3-yl)ethyl)urea]
EC50 (GHSR1a [1]): > 30000 nM | IC50 (GHSR1a [2]): 130 nM

CC(NC(=O)N(C)C1CCN(C)CC1)c1ccc(-c2cncc(CC#N)c2)c(Cl)c1Cl (centres unmarked) [Compound H0699, 3-(1-(2,3-dichloro-4-(5-(cyanomethyl)pyridin-3-yl)phenyl)ethyl)-1-methyl-1-(1-methylpiperidin-4-yl)urea]
EC50 (GHSR1a [1]): > 30000 nM | IC50 (GHSR1a [2]): 171 nM

CC(NC(=O)N(O)C1CCN(C)CC1)c1ccc(-c2cnccn2)c(Cl)c1Cl (centres unmarked) [Compound H0756, 3-(1-(2,3-dichloro-4-(pyrazin-2-yl)phenyl)ethyl)-1-hydroxy-1-(1-methylpiperidin-4-yl)urea]
EC50 (GHSR1a [1]): 13 nM | Emax (GHSR1a [1]): 1729 | IC50 (GHSR1a [2]): 13 nM

CC(NC(=O)N(C)C1CCN(C)CC1)c1ccc(C#Cc2cncnc2)c(Cl)c1Cl (centres unmarked) [Compound H0753, 3-(1-(2,3-dichloro-4-(pyrimidin-5-ylethynyl)phenyl)ethyl)-1-methyl-1-(1-methylpiperidin-4-yl)urea]
EC50 (GHSR1a [1]): > 30000 nM | IC50 (GHSR1a [2]): 60 nM

CN1CCC(N(O)C(=O)NC(CC2CC2)c2ccc(-c3cnccn3)c(Cl)c2Cl)CC1 (single isomer, unassigned) [Compound H0781, 3-(2-cyclopropyl-1-(2,3-dichloro-4-(pyrazin-2-yl)phenyl)ethyl)-1-hydroxy-1-(1-methylpiperidin-4-yl)urea]
EC50 (GHSR1a [1]): 420 nM | Emax (GHSR1a [1]): 4210 | IC50 (GHSR1a [2]): 95 nM

CC(NC(=O)N(C)C1CCOCC1)c1ccc(-c2cncnc2)c(Cl)c1Cl (centres unmarked) [Compound H0586, 3-(1-(2,3-dichloro-4-(pyrimidin-5-yl)phenyl)ethyl)-1-methyl-1-(tetrahydro-2H-pyran-4-yl)urea]
EC50 (GHSR1a [1]): 63000 nM | IC50 (GHSR1a [2]): 4200 nM

CCON(C(=O)NC(CC1CC1)c1ccc(-c2cnccn2)c(Cl)c1Cl)C1CCN(C)CC1 (centres unmarked) [Compound H0752, 3-(2-cyclopropyl-1-(2,3-dichloro-4-(pyrazin-2-yl)phenyl)ethyl)-1-ethoxy-1-(1-methylpiperidin-4-yl)urea]
EC50 (GHSR1a [1]): > 30000 nM | IC50 (GHSR1a [2]): 100 nM

CC(NC(=O)N(C)C1CCN(C)CC1)c1cnc(-c2cnccn2)c(Cl)c1Cl (centres unmarked) [Compound H0881, 3-(1-(4,5-dichloro-6-(pyrazin-2-yl)pyridin-3-yl)ethyl)-1-methyl-1-(1-methylpiperidin-4-yl)urea]
EC50 (GHSR1a [1]): > 30000 nM | IC50 (GHSR1a [2]): 810 nM

CC(NC(=O)N(C)C1CCN(C)CC1)c1ccc(-c2ccc[nH]2)c(Cl)c1Cl (centres unmarked) [Compound H0535, 3-(1-(2,3-dichloro-4-(1H-pyrrol-2-yl)phenyl)ethyl)-1-methyl-1-(1-methylpiperidin-4-yl)urea]
EC50 (GHSR1a [1]): 4 nM | IC50 (GHSR1a [2]): 34 nM

CC(NC(=O)N(C)C1CCN(C)CC1)c1ccc(-c2cnccn2)c2ccccc12 (centres unmarked) [Compound H0850, 1-methyl-1-(1-methylpiperidin-4-yl)-3-(1-(4-(pyrazin-2-yl)naphthalen-1-yl)ethyl)urea]
EC50 (GHSR1a [1]): > 30000 nM | IC50 (GHSR1a [2]): 1200 nM

CC(NC(=O)N(C)C1CCN(C)CC1)c1ccc(-c2cnn(C3CC3)c2)c(Cl)c1Cl (centres unmarked) [Compound H0842, 3-(1-(2,3-dichloro-4-(1-cyclopropyl-1H-pyrazol-4-yl)phenyl)ethyl)-1-methyl-1-(1-methylpiperidin-4-yl)urea]
EC50 (GHSR1a [1]): 67 nM | Emax (GHSR1a [1]): 1411 | IC50 (GHSR1a [2]): 64 nM

C#Cc1ccc(C(C)NC(=O)N(OCC)C2CCN(C)CC2)c(Cl)c1Cl (centres unmarked) [Compound H0749, 3-(1-(2,3-dichloro-4-ethynylphenyl)ethyl)-1-ethoxy-1-(1-methylpiperidin-4-yl)urea]
EC50 (GHSR1a [1]): 397 nM | Emax (GHSR1a [1]): 1554 | IC50 (GHSR1a [2]): 111 nM

CC(NC(=O)N(C)C1CCN(C)CC1)c1ccc(-c2ccc(C#N)cc2)c(Cl)c1Cl (centres unmarked) [Compound H0809, 3-(1-(2,3-dichloro-4′-cyano-[1,1′-biphenyl]-4-yl)ethyl)-1-methyl-1-(1-methylpiperidin-4-yl)urea]
EC50 (GHSR1a [1]): 217 nM | Emax (GHSR1a [1]): 2339 | IC50 (GHSR1a [2]): 149 nM

CC(NC(=O)N(C)C1CCN(C)CC1)c1ccc(-c2cccnc2)c2ccccc12 (centres unmarked) [Compound H0577, 1-methyl-1-(1-methylpiperidin-4-yl)-3-(1-(4-(pyridin-3-yl)naphthalen-1-yl)ethyl)urea]
EC50 (GHSR1a [1]): > 30000 nM | IC50 (GHSR1a [2]): 233 nM

CC(NC(=O)N(C)C1CCN(C)C1)c1ccc(-c2cccnc2)c(Cl)c1Cl (centres unmarked) [Compound H0526, 3-(1-(2,3-dichloro-4-(pyridin-3-yl)phenyl)ethyl)-1-methyl-1-(1-methylpyrrolidin-3-yl)urea]
EC50 (GHSR1a [1]): > 30000 nM | IC50 (GHSR1a [2]): 57 nM

COC(=O)C(NC(=O)N(C)C1CCN(C)CC1)c1ccc(-c2cncnc2)c(Cl)c1Cl (centres unmarked) [Compound H0662, methyl 2-(2,3-dichloro-4-(pyrimidin-5-yl)phenyl)-2-(3-methyl-3-(1-methylpiperidin-4-yl)ureido)acetate]
EC50 (GHSR1a [1]): > 30000 nM | IC50 (GHSR1a [2]): ≥ 1000 nM

CC(NC(=O)N(C)C1CCN(C)CC1)c1ccc(Nc2cccs2)c(Cl)c1Cl (centres unmarked) [Compound H0777, 3-(1-(2,3-dichloro-4-(thiophen-2-ylamino)phenyl)ethyl)-1-methyl-1-(1-methylpiperidin-4-yl)urea]
EC50 (GHSR1a [1]): 600 nM | Emax (GHSR1a [1]): 2288 | IC50 (GHSR1a [2]): 715 nM

CC(=O)c1cncc(-c2ccc(C(C)NC(=O)N(C)C3CCN(C)CC3)c(Cl)c2Cl)c1 (centres unmarked) [Compound H0690, 3-(1-(4-(5-acetylpyridin-3-yl)-2,3-dichlorophenyl)ethyl)-1-methyl-1-(1-methylpiperidin-4-yl)urea]
EC50 (GHSR1a [1]): > 30000 nM | IC50 (GHSR1a [2]): 980 nM

CC(NC(=O)N(C)C1CCN(C)CC1)c1ccc(-c2cnc(C(N)=O)cn2)c(Cl)c1Cl (centres unmarked) [Compound H0760]
EC50 (GHSR1a [1]): > 30000 nM | IC50 (GHSR1a [2]): 6200 nM

CC(NC(=O)N(C)C1CCN(C)CC1)c1ccc(-c2cncc(C3CC3)c2)c(Cl)c1Cl (centres unmarked) [Compound H0765, 3-(1-(2,3-dichloro-4-(5-cyclopropylpyridin-3-yl)phenyl)ethyl)-1-methyl-1-(1-methylpiperidin-4-yl)urea]
EC50 (GHSR1a [1]): 137 nM | Emax (GHSR1a [1]): 2810 | IC50 (GHSR1a [2]): 61 nM

CN1CCC(N(C)C(=O)NC(C#N)c2ccc(-c3cncnc3)c(Cl)c2Cl)CC1 (centres unmarked) [Compound H0631, 3-(cyano(2,3-dichloro-4-(pyrimidin-5-yl)phenyl)methyl)-1-methyl-1-(1-methylpiperidin-4-yl)urea]
EC50 (GHSR1a [1]): > 30000 nM | IC50 (GHSR1a [2]): 719 nM

CC(NC(=O)N(C)C1CCN(C)CC1)c1ccc(-c2csc(N)n2)c(Cl)c1Cl (centres unmarked) [Compound H0794, 3-(1-(4-(2-aminothiazol-4-yl)-2,3-dichlorophenyl)ethyl)-1-methyl-1-(1-methylpiperidin-4-yl)urea]
EC50 (GHSR1a [1]): 10 nM | Emax (GHSR1a [1]): 4435 | IC50 (GHSR1a [2]): 3 nM

CC(NC(=O)N(C)C1CCN(C)CC1)c1ccc(-c2cnc(N)nc2)c(Cl)c1Cl (centres unmarked) [Compound H0798, 3-(1-(4-(2-aminopyrimidin-5-yl)-2,3-dichlorophenyl)ethyl)-1-methyl-1-(1-methylpiperidin-4-yl)urea]
EC50 (GHSR1a [1]): > 30000 nM | IC50 (GHSR1a [2]): 162 nM

CC(NC(=O)N(C)C1CCN(C)CC1)c1ccc(-c2cnc(CO)cn2)c(Cl)c1Cl (centres unmarked) [Compound H0770, 3-(1-(2,3-dichloro-4-(5-(hydroxymethyl)pyrazin-2-yl)phenyl)ethyl)-1-methyl-1-(1-methylpiperidin-4-yl)urea]
EC50 (GHSR1a [1]): 294 nM | Emax (GHSR1a [1]): 1783 | IC50 (GHSR1a [2]): 700 nM

C[C@H](NC(=O)N(C)C1CCN(C)C1)c1ccc(-c2cnccn2)c(Cl)c1Cl (single isomer, unassigned) [Compound H0861]
EC50 (GHSR1a [1]): > 30000 nM | IC50 (GHSR1a [2]): 189 nM

CC(NC(=O)N(C)C1CCN(C)CC1)c1ccc(-c2ccc(N)cc2)c(Cl)c1Cl (centres unmarked) [Compound H0517, 3-(1-(4′-amino-2,3-dichloro-[1,1′-biphenyl]-4-yl)ethyl)-1-methyl-1-(1-methylpiperidin-4-yl)urea]
EC50 (GHSR1a [1]): > 30000 nM | IC50 (GHSR1a [2]): 19 nM

CC(=O)c1ccsc1-c1ccc(C(C)NC(=O)N(C)C2CCN(C)CC2)c(Cl)c1Cl (centres unmarked) [Compound H0688, 3-(1-(4-(3-acetylthiophen-2-yl)-2,3-dichlorophenyl)ethyl)-1-methyl-1-(1-methylpiperidin-4-yl)urea]
EC50 (GHSR1a [1]): 12 nM | Emax (GHSR1a [1]): 3100 | IC50 (GHSR1a [2]): 3 nM

CC(NC(=O)N(C)C1CCN(C)CC1)c1ccc(-c2nccnn2)c(Cl)c1Cl (centres unmarked) [Compound H0793, 3-(1-(2,3-dichloro-4-(1,2,4-triazin-3-yl)phenyl)ethyl)-1-methyl-1-(1-methylpiperidin-4-yl)urea]
EC50 (GHSR1a [1]): 22 nM | Emax (GHSR1a [1]): 3501 | IC50 (GHSR1a [2]): 21 nM

COc1ccc(C(NC(=O)N(C)C2CCN(C)CC2)C(N)=O)c(Cl)c1Br (centres unmarked) [Compound H0659, 2-(3-bromo-2-chloro-4-methoxyphenyl)-2-(3-methyl-3-(1-methylpiperidin-4-yl)ureido)acetamide]
EC50 (GHSR1a [1]): 353 nM | Emax (GHSR1a [1]): 200 | IC50 (GHSR1a [2]): 390 nM

CC(NC(=O)N(C)C1CCN(C)CC1)c1ccc(C#CCO)c(Cl)c1Cl (centres unmarked) [Compound H0755, 3-(1-(2,3-dichloro-4-(3-hydroxyprop-1-yn-1-yl)phenyl)ethyl)-1-methyl-1-(1-methylpiperidin-4-yl)urea]
EC50 (GHSR1a [1]): 10 nM | Emax (GHSR1a [1]): 2196 | IC50 (GHSR1a [2]): 12 nM
